The test system of assay [1] is Interleukin-1 (IL-1) production, human peripheral blood monocyte. The experiment in a line: Inhibitory activity on the production of Interleukin-1 (IL-1) in LPS-stimulated purified human peripheral blood monocytes (IL-1 ELISA). The assay is classed as cell-based. As to conditions: 48 h, bacterial lipopolysaccharide 1 μg/10^4 cells, 2 days at 37° C., IL-1β ELISA, read-out: IC50 (inhibition of IL-1 production). The protocol:
(a) Inhibitory activity on the production of Interleukin-1 (IL-1)
Purified human peripheral blood monocyte were stimulated with bacterial lipopolysaccharide (1 μg/10^4 cells) in the absence or presence of appropriately diluted test compound for 2 days at 37° C. in a humidified 5% CO2 atmosphere. Culture supernatants were tested for IL-1 ELISA assay.
Test compound was dissolved in absolute DMSO (dimethyl sulfoxide) to achieve 10 mM stock solutions and was subsequently diluted in serum free RPMI1640.
IL-1 levels were quantified by a commercial ELISA kit (Ohtsuka assay, Japan) using a sandwich technique. The sensitivity levels for the detection of IL-1β were 20 pg/ml.
(§1) The inhibitory concentration that caused a 50% inhibition (IC50) was calculated by regression analysis of the dose-response data.
A general note: In an ELISA, binding on a coated surface is turned into a signal by an enzyme label.

Assay [2] concerns tumor necrosis factor (TNF) production, human peripheral blood monocyte. Briefly: Inhibitory activity on the production of tumor necrosis factor (TNF) in LPS-stimulated purified human peripheral blood monocytes (TNF ELISA). The assay is classed as cell-based. As to conditions: 48 h, bacterial lipopolysaccharide 1 μg/10^4 cells, 2 days at 37° C., read-out: IC50 (inhibition of TNF production). The protocol: (b) Inhibitory activity on the production of tumor necrosis factor (TNF)
Purified human peripheral blood monocyte were stimulated with bacterial lipopolysaccharide (1 μg/10^4 cells) in the absence or presence of appropriately diluted test compound for 2 days at 37° C. in a humidified 5% CO2 atmosphere. Culture supernatants were tested for TNF ELISA assay.
TNF levels were quantified by a commercial ELISA kit (Endogen, Inc. USA) using a sandwich technique. The sensitivity levels for the detection of TNF were 12 pg/ml.
as §1

One molecule from patent US5624931A, “Pyrazole derivatives” (Fujisawa Pharmaceutical Co., Ltd., priority 1991, dated 1997) can be followed below.

Broadly, the IC50 is the midpoint of a concentration-inhibition curve.

Molecules are shown by their SMILES.

With `Fc1ccc(-c2nn3c(c2-c2ccncc2)NCCC3)cc1` [Example 2-(1), 2-(4-fluorophenyl)-3-(pyridin-4-yl)-4,5,6,7-tetrahydropyrazolo[1,5-a]pyrimidine], the values for the half-inhibitory concentration (IC50) in assay [1] and in assay [2] were 0.038 µM and 0.116 µM, respectively.
